Source: patent US9133266B2, “Vitronectin-derived cell culture substrate and uses thereof” (Wisconsin Alumni Research Foundation, priority 2011, dated 2015)

Key:
[1] = tested on: H1 ES cells; test: Media component test: survival and proliferation of dissociated ES cells; type: cell-based, human; details: for requirement for short-term survival (24 hours) and proliferation (82 hours) of human ES cells: factor removed from TeSR, FIG. 6A; for initial survival of human ES cells: added to defined medium, FIG. 6F; for cell survival and proliferation: FIG. 4A-B
Procedure: (§1) (A) Dissociated H1 ES cells were plated into different media (Table 1) on […]-coated plates, and cell survival was measured 24 hours after plating. […] (B) The same ES cells from FIG. […] (C) Dissociated cells were plated in three different media, and initial survival was measured 22 hours after plating (blue column) Proliferation was measured 129 hours after plating (red column) The three media were TESR™, TESR without L-ascorbic acid (TESR-LAA) and a simplified medium containing DMEM/F 12, NaHCO3 LAA, insulin and FGF2 (*p<0.05, n=3). (D) H1 cells were maintained in defined media (DMEM/F12, NaHCO3, Insulin, FGF2 and LAA) for multiple passages with or without selenium. 150,000 starting cells were seeded in each passage on day 0, 4 and 7. (E) Human H1 cells were grown in DMEM/F12, NaHCO3, Insulin, FGF2, LAA and selenium with or without NODAL for four passages, and OCT4 expression was analyzed by FACS. Green peak: anti-OCT4 primary antibody with Alexa-488 secondary antibody; unshaded peak: mouse IgG control. (F) Transferrin was tested with cloning assay in defined media (DMEM/F12, NaHCO3, Insulin, FGF2, LAA, and Selenium); human foreskin iPS cells (Yu et al., Science 318:1917-1920 (2007)) were used in this particular experiment with ROCK inhibitor HA100 (10 μM) in hypoxic conditions (*p<0.05, n=3). […] (G) E8 medium (Table 1), TESR™ and conditioned medium (CM) were tested by cloning assay with HA100 (*p<0.05, n=3). Hypoxia conditions (5% O2 and 10% CO2, red column) and normoxic conditions (5% CO2, blue column) were used in the test (*p<0.05, n=3). […] (H) E8 medium and TESR™ were used to culture ES and iPS cells for long-term expansion, and the proliferation dynamics was recorded in the first seven passages. 200,000 H1 and human foreskin iPS cells (Yu et al., Science 324:797-801 (2009)) were plated in each passage in E8 and TESR™ media in hypoxic conditions.
H1 cells were maintained in specific media for 5 days (2 passages), and RNA was purified for qRT-PCR to detect NANOG expression relative to GAPDH. […] A variety of basic media were used to make growth media with additional components (insulin, FGF2, LAA, Selenium, and NaHCO3). Dissociated H1 cells were plated in different media on […]-coated plates. […] Green peak: OCT4 antibody with Alexa-488 conjugated secondary antibody; Grey peak: mouse IgG control. […] Cells were treated with HA100 (10 μM) and Y27632) (10 μM) for 24 hours, and with blebbistatin (10 μM) for 4 hours (*p<0.05, n=3).

[2] = tested on: H1 cells; test: Cloning assay; type: cell-based, human
Procedure: To determine how the various vitronectin variants affect cloning efficiency, the vitronectin polypeptide variants were tested in a cloning assay, essentially as described by Chen et al, Cell Stem Cell 7:240-248 (2010), incorporated herein by reference as if set forth in its entirety. Briefly, triplicates for each substrate were prepared in a 12-well plate. Prior to the addition of cells, 500 μL medium was added to each well. Cells were detached from their culture plate and dissociated with TrypLE for 5 minutes or until fully detached. TrypLE was neutralized with equal volumes of basic media, and the cells were counted, washed and then diluted to 5000 cells/mL. 100 μL of this cell suspension (500 cells) was added to each well. Plates were then incubated at 37° C., 5% O2 and 10% CO2 and the medium was changed every 1-2 day(s). After 5-6 days, colonies were stained with an APS kit (Vector Lab) following the manufacturer's instruction and counted.

[3] = tested on: human ES and iPS cells; test: Long-term expansion of ES and iPS cells in defined medium; type: cell-based; details: for long-term culture stability of human ES and iPS cells: NODAL 100 ng/ml or TGFβ 2 ng/ml added to simple medium
Procedure: as §1, with “FIG. 5A were cultured in the same media with daily media change, and proliferation was measured 96 hours after plating.” for “FIG.”

[4] = tested on: NANOG expression in H1 cells; test: NANOG expression by qRT-PCR relative to GAPDH; type: cell-based, human; details: NODAL 100 ng/ml or TGFβ 2 ng/ml in defined media; FIG. 6B
Procedure: FIG. 6 illustrates media components supporting human pluripotent stem cells. […] When those factors were removed, H1 ES cells survived (24 hours, blue columns) and proliferated (82 hours, red columns) as well as in TeSR. […] H1 cells were maintained in specific media for 5 days (2 passages), and RNA was purified for qRT-PCR to detect NANOG expression relative to GAPDH. (C) DMEM/F12 basic media is among the best basic media in the screen that supports human ES cell survival and proliferation. A variety of basic media were used to make growth media with additional components (insulin, FGF2, LAA, Selenium, and NaHCO3). Dissociated H1 cells were plated in different media on MATRIGEL-coated plates. Cell survival was measured at 24 hours (blue column) and cell proliferation at 52 hours (red column) (D) Defined media (DMEM/F12, insulin, FGF2, LAA, and Selenium) with NODAL supports pluripotency of human iPS cells. Flow cytometry detected high expression of pluripotency marker OCT4 in two iPS cell lines. Green peak: OCT4 antibody with Alexa-488 conjugated secondary antibody; Grey peak: mouse IgG control. Similar results were also obtained from H1 and H9 ES cells maintained in the same media. (E) Normal karyotypes were maintained after long-term passage for those iPS cells shown above. […] High OCT4 expression was detected in H1 and iPS cells. […]

[5] = tested on: human foreskin iPS cells; test: Cloning assay in defined media with transferrin; type: cell-based; details: defined media with HA100 (10 μM), hypoxic conditions; FIG. 4F
Procedure: FIG. 4 presents media components supporting human ES cell survival and proliferation. (A) Dissociated H1 ES cells were plated into different media (Table 1) on MATRIGEL-coated plates, and cell survival was measured 24 hours after plating. […] (B) The same ES cells from FIG. 5A were cultured in the same media with daily media change, and proliferation was measured 96 hours after plating. […] (C) Dissociated cells were plated in three different media, and initial survival was measured 22 hours after plating (blue column) Proliferation was measured 129 hours after plating (red column) The three media were […] without L-ascorbic acid (TESR-LAA) and a simplified medium containing DMEM/F 12, NaHCO3 LAA, insulin and FGF2 (*p<0.05, n=3). (D) H1 cells were maintained in defined media (DMEM/F12, NaHCO3, Insulin, FGF2 and LAA) for multiple passages with or without selenium. 150,000 starting cells were seeded in each passage on day 0, 4 and 7. (E) Human H1 cells were grown in DMEM/F12, NaHCO3, Insulin, FGF2, LAA and selenium with or without NODAL for four passages, and OCT4 expression was analyzed by FACS. Green peak: anti-OCT4 primary antibody with Alexa-488 secondary antibody; unshaded peak: mouse IgG control. […] (H) E8 medium and […] were used to culture ES and iPS cells for long-term expansion, and the proliferation dynamics was recorded in the first seven passages. […]

[6] = added to defined medium, FIG. 6G
[7] = TESR components in absence of BSA and BME

Molecule: NCCCC(=O)O [GABA]
- requirement for short-term survival (24 hours) and proliferation (82 hours) of human ES cells [1]: not required for short-term survival and proliferation

Molecule: O=S(=O)(c1cccc2cnccc12)N1CCNCC1 [HA100, reference compound]
- cell survival after dissociation ([1]; 10 μM, TeSR, p<0.05, n=3): improved cell survival after dissociation
- initial survival of human ES cells [1]: improved initial survival
- cloning efficiency ([2]; E8 media, 10 μM for 24 hours, p<0.05, n=3): improved cloning efficiency as efficiently as Y27632 and blebbistatin
- cloning efficiency [2, 6]: supported a high cloning efficiency

Molecule: O=C1O[C@H]([C@@H](O)CO)C(O)=C1O [L-ascorbic acid]
- ES cell proliferation ([1]; TESR components in absence of BSA and BME, FIG. 4C): promoted ES cell proliferation

Molecule: [Cl-].[Li+] [LiCl]
- requirement for short-term survival (24 hours) and proliferation (82 hours) of human ES cells [1]: not required for short-term survival and proliferation

Molecule: O=C(O)C1CCCCN1 (stereo not drawn) [Pipecolic acid]
- requirement for short-term survival (24 hours) and proliferation (82 hours) of human ES cells [1]: not required for short-term survival and proliferation

Molecule: C[C@@H](N)[C@H]1CC[C@H](C(=O)Nc2ccncc2)CC1 [Y27632, reference compound]
- initial survival of human ES cells [1]: improved initial survival
- cloning efficiency [2, 6]: supported a high cloning efficiency

Molecule: Cc1ccc2c(c1)C(=O)C1(O)CCN(c3ccccc3)C1=N2 (stereo not drawn) [blebbistatin, reference compound]
- initial survival of human ES cells [1]: improved initial survival
- cloning efficiency [2, 6]: supported a high cloning efficiency

Molecule: [Se] [selenium]
- long-term sustained growth ([3]; defined media, multiple passages, FIG. 4D): necessary for long-term sustained growth

Molecule: FGF2: growth factor medium component
- cell survival and proliferation [1, 7]: remained important for cell survival and proliferation

Molecule: Insulin: medium component
- cell survival and proliferation [1, 7]: remained important for cell survival and proliferation

Molecule: TGFβ
- long-term culture stability of human ES and iPS cells [3]: consistent long-term culture stability
- NANOG expression levels [4]: increased NANOG expression levels
- requirement for short-term survival (24 hours) and proliferation (82 hours) of human ES cells [1]: not required for short-term survival and proliferation

Molecule: transferrin: protein medium component of E8
- cloning efficiency on addition of transferrin [5]: further increased

B1: NODAL: growth factor medium component, 100 ng/mL, interchangeable with TGFβ in E8 media (protein, UniProt Q96S42 238-347, looked up)
Nodal homolog: HHLPDRSQLCRKVKFQVDFNLIGWGSWIIYPKQYNAYRCEGECPNPVGEEFHPTNHAYIQSLLKRYQPHRVPSTCCAPVKTKPLSMLYVDNGRVLLDHHKDMIVEECGCL
- long-term culture stability of human ES and iPS cells [3]: consistent long-term culture stability
- NANOG expression levels [4]: increased NANOG expression levels
